Laboratory results taken from article PMC10485906, “Development of a Dihydroquinoline–Pyrazoline GluN2C/2D-Selective Negative Allosteric Modulator of the N-Methyl-D-aspartate Receptor” (ACS Chemical Neuroscience, 2023).

Legend:
GluN1/GluN2C = GluN1/GluN2C (Rattus norvegicus, UniProt Q00961); parameters: GluN2B (NM_012574.1), GluN2C (NM_012575.3), and GluN2D (NM_022797.2) were provided by; expressed in transfected cells; host or cells: Xenopus laevis oocytes (cRNA injection); settings: reproduced for comparison; cited from earlier work
Chain of GluN1/GluN2C (Q00961 20-1237, other chains not shown): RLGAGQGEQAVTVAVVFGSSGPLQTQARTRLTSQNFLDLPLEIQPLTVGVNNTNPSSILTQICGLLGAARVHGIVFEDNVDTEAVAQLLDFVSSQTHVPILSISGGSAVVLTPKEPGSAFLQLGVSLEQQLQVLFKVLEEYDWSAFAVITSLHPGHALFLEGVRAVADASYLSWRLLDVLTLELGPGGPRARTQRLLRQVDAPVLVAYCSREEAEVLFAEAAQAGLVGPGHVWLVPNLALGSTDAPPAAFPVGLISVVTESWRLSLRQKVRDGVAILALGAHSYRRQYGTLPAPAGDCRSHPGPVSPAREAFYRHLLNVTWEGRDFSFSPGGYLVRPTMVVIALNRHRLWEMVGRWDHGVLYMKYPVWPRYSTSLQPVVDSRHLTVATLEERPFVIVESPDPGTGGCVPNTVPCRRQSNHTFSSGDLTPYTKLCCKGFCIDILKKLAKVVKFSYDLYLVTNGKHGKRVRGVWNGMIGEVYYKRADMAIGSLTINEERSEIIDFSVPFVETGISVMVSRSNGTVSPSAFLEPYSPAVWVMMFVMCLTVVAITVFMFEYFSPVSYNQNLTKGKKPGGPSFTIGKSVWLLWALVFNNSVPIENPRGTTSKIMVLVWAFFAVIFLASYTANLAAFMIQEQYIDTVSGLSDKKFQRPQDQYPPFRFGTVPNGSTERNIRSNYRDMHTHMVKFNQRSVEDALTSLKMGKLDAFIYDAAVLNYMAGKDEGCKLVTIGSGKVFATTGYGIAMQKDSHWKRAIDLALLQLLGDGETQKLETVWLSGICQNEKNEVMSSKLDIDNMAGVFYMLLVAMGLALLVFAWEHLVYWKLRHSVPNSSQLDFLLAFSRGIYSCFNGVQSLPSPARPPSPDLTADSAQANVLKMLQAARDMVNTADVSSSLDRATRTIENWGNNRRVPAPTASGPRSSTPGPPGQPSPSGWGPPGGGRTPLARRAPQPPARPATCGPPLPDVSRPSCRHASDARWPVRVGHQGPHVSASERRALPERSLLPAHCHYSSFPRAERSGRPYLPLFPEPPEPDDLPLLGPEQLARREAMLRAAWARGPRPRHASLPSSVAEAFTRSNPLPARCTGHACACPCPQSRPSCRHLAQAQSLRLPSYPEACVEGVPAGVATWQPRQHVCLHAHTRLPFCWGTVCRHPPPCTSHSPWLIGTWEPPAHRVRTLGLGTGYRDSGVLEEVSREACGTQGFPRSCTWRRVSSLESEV

GluA2-R607Q = molecular target: T1, GluA2-R607Q (Rattus norvegicus, UniProt P19491); experiment: Off-target, oocytes, GluA2; format: cell-based; settings: 1 µM compound; 100 µM glutamate
T1 construct: expressed in transfected cells; host or cells: Xenopus oocytes (cRNA injection)
T1 sequence (P19491 22-883, stated change not applied): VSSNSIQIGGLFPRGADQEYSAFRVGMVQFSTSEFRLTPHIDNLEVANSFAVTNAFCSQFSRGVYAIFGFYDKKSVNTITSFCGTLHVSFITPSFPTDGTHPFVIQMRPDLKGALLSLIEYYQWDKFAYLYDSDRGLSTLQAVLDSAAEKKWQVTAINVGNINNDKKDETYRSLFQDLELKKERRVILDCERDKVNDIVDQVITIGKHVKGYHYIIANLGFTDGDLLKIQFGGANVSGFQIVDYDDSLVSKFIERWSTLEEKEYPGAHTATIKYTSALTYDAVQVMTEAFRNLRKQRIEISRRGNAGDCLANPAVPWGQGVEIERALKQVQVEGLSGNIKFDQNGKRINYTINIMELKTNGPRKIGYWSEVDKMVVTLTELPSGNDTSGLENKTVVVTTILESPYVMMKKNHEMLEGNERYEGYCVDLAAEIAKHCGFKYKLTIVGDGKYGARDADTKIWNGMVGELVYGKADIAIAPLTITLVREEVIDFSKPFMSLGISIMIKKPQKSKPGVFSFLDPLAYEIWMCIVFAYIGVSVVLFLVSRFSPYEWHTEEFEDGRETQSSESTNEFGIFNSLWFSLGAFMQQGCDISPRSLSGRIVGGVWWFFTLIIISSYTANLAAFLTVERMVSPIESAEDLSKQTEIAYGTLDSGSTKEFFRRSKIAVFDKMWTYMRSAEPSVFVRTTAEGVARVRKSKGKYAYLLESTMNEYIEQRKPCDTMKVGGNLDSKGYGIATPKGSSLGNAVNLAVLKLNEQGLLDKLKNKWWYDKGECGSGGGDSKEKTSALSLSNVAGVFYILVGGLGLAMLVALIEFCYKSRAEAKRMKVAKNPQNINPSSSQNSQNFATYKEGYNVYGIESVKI
Procedure: (§1) Analysis of Off-target Actions
(§2) Compound (S)-(-)-2i was tested at 1 µM for actions at glycine-activated GluN1/GluN3A (human GluN1-F484A,T518L/GluN3A referred to a GluN1-FA,TL/GluN3A) and rat GluN1-4a/GluN3B in the presence of 0.5 µM CGP-78608. cRNA injection ratios for GluN1/GluN3 were 1:2. Compound (S)-(-)- 2i was also tested for actions at AMPA (rat GluA1, rat GluA2, human GluA3-L531Y), kainate (rat GluK2), nicotinic acetylcholine (rat α7 and α4β2, cRNA ratio 1:1), GABAA (rat α1β2γ2S, cRNA ratio 1:1:1), GABAC (rat ρ1), glycine (rat α1), and purinergic (human P2X) receptors expressed in Xenopus oocytes. cRNA encoding the receptor subunits was synthesized from linear template cDNA using the mMessage mMachine kit (Ambion). Oocytes were injected with 1-5 ng cRNA in a 50 nL volume and incubated in Barth's solution at 15°C for 2-5 days prior to recording. GluK2-expressing oocyte were incubated in 1 mg/ml (10 µM) concanavalin-A for 10 min prior to recording. The cDNAs encoding GABAC and glycine subunits were provided by Dr. D. Weiss (University of Texas Health Science Center at San Antonio). cDNAs encoding nicotinic acetylcholine receptor subunits were provided by Drs. […]
(§3) GABA. […] Responses in presence of test compound were expressed as a percent of control. […]

hP2x = experiment: Off-target, oocytes, purinergic receptor; format: cell-based, human; settings: 1 µM compound; 9 µM ATP
Procedure: as §1, §2, §3

| % control GluA2-R607Q (GluA2-R607Q) | Structure (SMILES) | I 30 μM / I control GluN2C (GluN1/GluN2C) | % control hP2x (hP2x) |
| --- | --- | --- | --- |
| – | O=C(O)CCC(=O)N1N=C(c2c(-c3ccc(Cl)cc3)c3ccccc3[nH]c2=O)CC1c1ccc(Cl)cc1 (stereo not drawn) [2a] | 3.1 ± 0.6 (2,6) % | – |
| 98 ± 0.85% | O=C(O)CC(F)(F)C(=O)N1N=C(c2c(-c3ccc(Cl)cc3)c3ccccc3[nH]c2=O)C[C@H]1c1ccc(Cl)cc1 [(S)-(−)-2i] | – | 108 ± 0.53% |
